# Results as given in patent US10059688B2, “Protein tyrosine kinase modulators and methods of use” (BETTA PHARMACEUTICALS CO., LTD., priority 2013, dated 2018).
# What was measured:
# [1] = tested on: H1975 (EGFR L858R/T790M) NSCLC cells; assay: Cell proliferation assay (MTS cell viability); type: cell-based; details: Homo sapiens, NCI-H1975, 72 h; H1975 cells, 3 days of exposure, MTS
# [2] = tested on: HCC827 (EGFR Del) NSCLC cells; assay: Cell proliferation assay (MTS cell viability); type: cell-based; details: Homo sapiens, 72 h; HCC827 cells, 3 days of exposure, MTS
# Method: (§1) Effects of test compounds on in vitro proliferation were measured by MTS cell viability assay.
# (§2) Prepare test compounds in each well with a final medium volume of 200 μl;
# Incubate for 3 days of exposure;
# (§3) Prepare reagents following the instructions in the Cell Proliferation Assay kit (Promega);
# (§4) Change to serum-free medium with a final volume of 100 l/well. Prepare a set of wells with medium only for background subtraction;
# (§5) Add 20 μl MTS solution containing PMS to each well (final concentration of MTS will be 0.33 mg/ml);
# (§6) Incubate 1 to 4 hours at 37° C. in a humidified, 5% CO2 atmosphere.
# (§7) Record absorbance at 490 nm using VICTOR™ X5 plate reader (PerkinElmer).
# (§8) All experimental points were set up in three wells and all experiments were repeated at least three times.
# [3] = tested on: A549 (EGFR WT) NSCLC cells; assay: Cell proliferation assay (MTS cell viability); type: cell-based; details: Homo sapiens, 72 h; A549 cells, 3 days of exposure, MTS
# Method: as §1
# A549 cells were maintained in Ham's F12K medium (Gibco) supplemented with 10% FBS, 100 units/mL penicillin, 100 units/mL streptomycin, and 2 mM glutamine.
# as §2
# Incubate for 3 days of exposure;
# as §3, §4, §5, §6, §7, §8
# A431 (EGFR WT) cells = assay: Cell proliferation assay (MTS cell viability); type: cell-based; details: Homo sapiens, A-431, 72 h, 3 days of exposure
# Method: as §1
# A431 cells were maintained in DMEM (Gibco) supplemented with 10% FBS, 100 units/mL penicillin, 100 units/mL streptomycin, and 2 mM glutamine.
# as §2
# Incubate for 3 days of exposure;
# as §3, §4, §5, §6, §7, §8
# EGFR (h) = EGFR (h) (Homo sapiens (Human), UniProt P00533); assay: Kinase assay, single dose inhibition (Millipore, 33P-ATP filter binding); type: biochemical; details: 0.1 μM test compound, 10 μM ATP; remaining activity relative to DMSO control = 100%
# Method: (§9) Assay conditions included 10 μM ATP and 100 nM test compounds.
# (§10) All reactions are initiated by the addition of the MgATP mix. After incubation for 40 minutes at room temperature, the reaction is stopped by the addition of 3% phosphoric acid solution. 10 μL of the reaction is then spotted onto a P30 filtermat and washed three times for 5 minutes in 75 mM phosphoric acid and once in methanol prior to drying and scintillation counting. This assay is performed by Millipore. The experiment is carried out in duplicate. The value for the control sample (DMSO) was set to 100%, and the values for the compound-treated samples were expressed as activity relative to the control sample.
# EGFR (L858R) (h) = EGFR (L858R) (h) (Homo sapiens (Human), UniProt P00533, L858R); assay: as above; type: biochemical; details: 0.1 μM test compound, 10 μM ATP; remaining activity relative to DMSO control = 100%
# Chain of EGFR (L858R) (h) (P00533 25-1210 L858R): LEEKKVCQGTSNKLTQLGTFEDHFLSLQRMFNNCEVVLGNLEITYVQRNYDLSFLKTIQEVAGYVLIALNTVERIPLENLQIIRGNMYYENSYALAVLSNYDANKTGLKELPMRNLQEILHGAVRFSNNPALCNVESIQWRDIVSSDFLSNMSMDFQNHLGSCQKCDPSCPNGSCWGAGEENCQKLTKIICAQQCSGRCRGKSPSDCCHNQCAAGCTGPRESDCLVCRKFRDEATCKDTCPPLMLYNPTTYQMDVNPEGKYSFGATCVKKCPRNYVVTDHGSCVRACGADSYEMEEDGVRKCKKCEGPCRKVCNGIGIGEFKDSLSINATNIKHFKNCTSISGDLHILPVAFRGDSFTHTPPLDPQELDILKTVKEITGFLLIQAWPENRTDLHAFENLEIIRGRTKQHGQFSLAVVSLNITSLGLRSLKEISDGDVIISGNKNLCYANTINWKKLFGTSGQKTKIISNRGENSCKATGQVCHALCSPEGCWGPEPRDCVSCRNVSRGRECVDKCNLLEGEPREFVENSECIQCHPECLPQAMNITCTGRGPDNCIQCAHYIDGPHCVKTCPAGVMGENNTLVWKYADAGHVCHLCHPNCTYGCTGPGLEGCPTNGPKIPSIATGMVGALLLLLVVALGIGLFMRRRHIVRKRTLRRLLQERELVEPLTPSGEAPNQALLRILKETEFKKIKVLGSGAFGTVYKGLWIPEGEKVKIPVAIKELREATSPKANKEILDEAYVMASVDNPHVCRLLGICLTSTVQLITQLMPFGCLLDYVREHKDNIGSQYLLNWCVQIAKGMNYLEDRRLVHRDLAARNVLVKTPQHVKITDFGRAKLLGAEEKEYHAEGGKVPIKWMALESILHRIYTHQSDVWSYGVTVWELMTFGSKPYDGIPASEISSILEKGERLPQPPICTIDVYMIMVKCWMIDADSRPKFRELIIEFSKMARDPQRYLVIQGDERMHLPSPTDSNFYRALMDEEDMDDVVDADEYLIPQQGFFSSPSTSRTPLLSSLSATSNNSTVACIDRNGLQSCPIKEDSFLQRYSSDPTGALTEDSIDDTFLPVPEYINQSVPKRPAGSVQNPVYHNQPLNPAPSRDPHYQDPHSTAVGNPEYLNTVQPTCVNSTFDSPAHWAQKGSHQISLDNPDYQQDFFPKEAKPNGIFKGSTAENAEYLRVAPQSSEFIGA
# Method: as §9, §10
# EGFR (T790M) (h) = EGFR (T790M) (h) (Homo sapiens (Human), UniProt P00533, T790M); assay: as above; type: biochemical; details: 0.1 μM test compound, 10 μM ATP; remaining activity relative to DMSO control = 100%
# Chain of EGFR (T790M) (h) (P00533 25-1210 T790M): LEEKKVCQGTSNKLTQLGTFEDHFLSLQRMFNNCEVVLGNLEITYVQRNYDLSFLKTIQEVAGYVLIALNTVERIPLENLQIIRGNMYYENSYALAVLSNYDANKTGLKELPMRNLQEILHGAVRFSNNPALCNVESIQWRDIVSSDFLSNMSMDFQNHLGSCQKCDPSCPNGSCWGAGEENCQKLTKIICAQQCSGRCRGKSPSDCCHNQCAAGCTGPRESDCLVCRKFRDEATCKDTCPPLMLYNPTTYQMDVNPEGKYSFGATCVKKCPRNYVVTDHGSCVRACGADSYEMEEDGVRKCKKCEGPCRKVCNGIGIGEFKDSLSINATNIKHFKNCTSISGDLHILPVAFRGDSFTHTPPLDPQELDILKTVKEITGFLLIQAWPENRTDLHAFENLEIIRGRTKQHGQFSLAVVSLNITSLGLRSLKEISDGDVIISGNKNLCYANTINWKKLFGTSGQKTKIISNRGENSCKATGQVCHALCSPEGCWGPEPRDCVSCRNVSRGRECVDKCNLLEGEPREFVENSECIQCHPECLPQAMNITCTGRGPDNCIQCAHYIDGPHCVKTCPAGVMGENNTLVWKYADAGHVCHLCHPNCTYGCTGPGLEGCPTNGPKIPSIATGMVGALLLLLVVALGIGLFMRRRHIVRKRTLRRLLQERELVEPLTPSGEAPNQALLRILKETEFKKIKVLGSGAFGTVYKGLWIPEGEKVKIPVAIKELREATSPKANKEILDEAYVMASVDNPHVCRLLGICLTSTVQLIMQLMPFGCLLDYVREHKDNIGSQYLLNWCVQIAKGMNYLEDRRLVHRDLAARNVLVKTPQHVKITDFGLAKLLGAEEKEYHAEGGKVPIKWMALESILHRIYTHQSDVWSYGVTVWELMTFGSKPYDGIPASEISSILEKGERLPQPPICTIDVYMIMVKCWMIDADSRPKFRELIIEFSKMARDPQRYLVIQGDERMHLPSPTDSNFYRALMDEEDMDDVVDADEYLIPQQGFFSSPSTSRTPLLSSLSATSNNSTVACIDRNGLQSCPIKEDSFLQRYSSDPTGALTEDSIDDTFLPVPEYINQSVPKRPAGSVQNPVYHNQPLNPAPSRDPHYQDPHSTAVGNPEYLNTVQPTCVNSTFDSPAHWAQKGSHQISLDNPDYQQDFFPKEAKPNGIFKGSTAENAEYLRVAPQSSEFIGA
# EGFR (T790M, L858R) (h) = EGFR (T790M, L858R) (h) (Homo sapiens (Human), UniProt P00533, L858R/T790M); assay: as above; type: biochemical; details: 0.1 μM test compound, 10 μM ATP; remaining activity relative to DMSO control = 100%
# ALK (h) = ALK (h) (Homo sapiens (Human), UniProt Q9UM73); assay: as above; type: biochemical; details: 0.1 μM test compound, 10 μM ATP; remaining activity relative to DMSO control = 100%
# Chain of ALK (h) (Q9UM73 19-1620): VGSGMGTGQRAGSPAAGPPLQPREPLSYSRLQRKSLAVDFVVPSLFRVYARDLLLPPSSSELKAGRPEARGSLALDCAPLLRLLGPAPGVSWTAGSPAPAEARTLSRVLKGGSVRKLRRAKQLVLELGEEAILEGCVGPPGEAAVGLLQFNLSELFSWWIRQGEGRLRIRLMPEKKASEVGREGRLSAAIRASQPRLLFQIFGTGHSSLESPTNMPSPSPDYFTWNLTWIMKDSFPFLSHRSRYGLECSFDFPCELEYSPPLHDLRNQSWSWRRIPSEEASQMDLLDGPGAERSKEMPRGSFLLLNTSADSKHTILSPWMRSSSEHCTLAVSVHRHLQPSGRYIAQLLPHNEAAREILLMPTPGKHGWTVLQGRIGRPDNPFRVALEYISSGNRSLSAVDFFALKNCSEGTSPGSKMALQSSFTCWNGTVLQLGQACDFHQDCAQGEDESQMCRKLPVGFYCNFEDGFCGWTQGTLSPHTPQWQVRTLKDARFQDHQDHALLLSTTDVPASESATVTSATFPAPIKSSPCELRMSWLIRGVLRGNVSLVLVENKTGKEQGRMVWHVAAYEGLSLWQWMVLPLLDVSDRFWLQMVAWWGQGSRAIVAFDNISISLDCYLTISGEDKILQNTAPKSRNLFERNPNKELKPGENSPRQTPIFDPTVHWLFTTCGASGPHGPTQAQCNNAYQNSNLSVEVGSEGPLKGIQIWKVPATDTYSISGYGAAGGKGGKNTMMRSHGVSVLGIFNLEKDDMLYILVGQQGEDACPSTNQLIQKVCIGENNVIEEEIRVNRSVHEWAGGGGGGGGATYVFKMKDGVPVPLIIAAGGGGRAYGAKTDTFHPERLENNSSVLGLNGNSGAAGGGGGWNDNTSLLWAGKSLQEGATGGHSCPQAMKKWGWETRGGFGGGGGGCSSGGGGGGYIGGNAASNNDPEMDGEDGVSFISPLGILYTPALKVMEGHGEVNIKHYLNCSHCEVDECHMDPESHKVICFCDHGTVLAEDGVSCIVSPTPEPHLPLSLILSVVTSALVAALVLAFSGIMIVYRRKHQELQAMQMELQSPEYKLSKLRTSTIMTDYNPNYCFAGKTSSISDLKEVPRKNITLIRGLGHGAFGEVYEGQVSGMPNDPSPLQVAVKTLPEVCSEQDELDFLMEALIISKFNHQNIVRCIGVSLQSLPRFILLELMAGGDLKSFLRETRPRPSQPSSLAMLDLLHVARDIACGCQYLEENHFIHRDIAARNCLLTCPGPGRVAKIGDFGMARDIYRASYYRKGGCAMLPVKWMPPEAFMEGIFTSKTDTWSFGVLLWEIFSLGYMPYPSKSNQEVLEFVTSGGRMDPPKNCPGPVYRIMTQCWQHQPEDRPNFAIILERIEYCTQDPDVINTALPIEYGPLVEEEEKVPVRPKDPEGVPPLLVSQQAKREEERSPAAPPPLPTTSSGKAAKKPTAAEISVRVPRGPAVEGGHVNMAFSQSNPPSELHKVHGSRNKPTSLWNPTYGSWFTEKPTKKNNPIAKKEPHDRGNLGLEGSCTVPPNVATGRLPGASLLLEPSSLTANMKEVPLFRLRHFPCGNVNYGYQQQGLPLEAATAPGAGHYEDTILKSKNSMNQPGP
# Method: as §9, §10
# [4] = tested on: activated and resistant T790M forms of EGFR; EGFR WT; assay: In vitro cellular assays, statements across cell lines; type: cell-based; details: result in words
# Method: as §1
SMILES,IC50 [1],IC50 [2],IC50 [3],IC50 (A431 (EGFR WT) cells),Activity (control) % EGFR (h) (EGFR (h)),Activity (control) % EGFR (L858R) (h) (EGFR (L858R) (h)),Activity (control) % EGFR (T790M) (h) (EGFR (T790M) (h)),"Activity (control) % EGFR (T790M, L858R) (h) (EGFR (T790M, L858R) (h))",Activity (control) % ALK (h) (ALK (h)),activity against both activated and resistant T790M forms of EGFR in vitro cellular assays [4]
"COc1cc(N2CCC(N(C)C)CC2)ccc1Nc1ncc(Cl)c(Nc2ccccc2C(=O)C(=O)N(C)C)n1 [Example 17, 2-(2-((5-chloro-2-((4-(4-(dimethylamino)piperidin-1-yl)-2-methoxyphenyl)amino)pyrimidin-4-yl)amino)phenyl)-N,N-dimethyl-2-oxoacetamide]",860 nM,1230 nM,> 3000 nM,260 nM,–,–,–,–,–,–
"COc1cc(N2CCN(C(C)=O)CC2)ccc1Nc1ncc(Cl)c(Nc2ccccc2C(=O)C(=O)N(C)C)n1 [Example 53, 2-(2-(2-(4-(4-acetylpiperazin-1-yl)-2-methoxyphenylamino)-5-chloropyrimidin-4-ylamino)phenyl)-N,N-dimethyl-2-oxoacetamide]",210 nM,540 nM,> 3000 nM,50 nM,109%,60%,21%,4%,–,–
"C=CC(=O)Nc1cc(Nc2ncc(Cl)c(Nc3ccccc3C(=O)C(=O)NC)n2)ccc1OC [Example 64, N-(5-(5-chloro-4-(2-(2-(methylamino)-2-oxoacetyl)phenylamino)pyrimidin-2-ylamino)-2-methoxyphenyl)acrylamide]",90 nM,450 nM,> 3000 nM,–,106%,100%,79%,39%,47%,–
"C=CC(=O)Nc1cc(Nc2ncc(Cl)c(Nc3ccccc3C(=O)C(=O)N(C)C)n2)ccc1OC [Example 65, N-(5-(5-chloro-4-(2-(2-(dimethylamino)-2-oxoacetyl)phenylamino)pyrimidin-2-ylamino)-2-methoxyphenyl)acrylamide]",20 nM,120 nM,> 3000 nM,–,118%,102%,80%,25%,19%,potent activity
"C=CC(=O)Nc1cc(Nc2ncc(Cl)c(Nc3ccccc3C(=O)C(=O)N(C)C)n2)c(OC)cc1F [Example 66, N-(5-(5-chloro-4-(2-(2-(dimethylamino)-2-oxoacetyl)phenylamino)pyrimidin-2-ylamino)-2-fluoro-4-methoxyphenyl)acrylamide]",50 nM,120 nM,> 3000 nM,–,107%,104%,66%,24%,35%,potent activity
"C=C(CN(C)CCN(C)C)C(=O)Nc1ccc(OC)c(Nc2ncc(Cl)c(Nc3ccccc3C(=O)C(=O)N(C)C)n2)c1 [Example 126, N-(3-(5-chloro-4-(2-(2-(dimethylamino)-2-oxoactyl)phenylamino)pyrimidin-2-ylamino)-4-methoxyphenyl)-2-(((2-(dimethylamino)ethyl)(methyl)amino)methyl)acrylamide]",10 nM,20 nM,–,210 nM,93%,47%,5%,2%,19%,–
"C=CC(=O)Nc1ccc(OC)c(Nc2ncc(Cl)c(Nc3ccccc3C(=O)C(=O)N(CC)CC)n2)c1 [Example 131, N-(3-(5-chloro-4-(2-(2-(diethylamino)-2-oxoacetyl)phenylamino)pyrimidin-2-ylamino)-4-methoxyphenyl)acrylamide]",10 nM,50 nM,–,750 nM,104%,104%,82%,27%,9%,–
